Measured values published in patent US11242353B2, “Heterocyclic LSF inhibitors and their uses” (TRUSTEES OF BOSTON UNIVERSITY, priority 2020, dated 2022).
Read-outs that look alike come from different tables or passages of the source.

Test system: Huh7 cells
Assay: growth inhibition of Huh7 cells
Assay type: cell-based
Details: single trials per figure (FIGS. 1A-4)
Experimental: FIGS. 1A-4 show results for growth inhibition of Huh7 cells upon contact with compounds (FQI-37Q), (FQI-34Q), (FQI-1Q), (JAK 196-22), and (JAK 196.23). Compounds (FQI-37Q) and (FQI-34Q) show high activities (GI50 about 0.5 μM and lower).

[1] = Homo sapiens, Huh-7, Huh7 cells, read-out: GI50 (growth inhibition of Huh7 cells)

Compound	GI50 [1] [nM]	other results
COc1cc([N+](=O)[O-])ccc1-n1c(=O)cnc2cc3c(cc21)OCO3 [JAK 196-22]	> 10000	–
CCOc1cc(N(C)C)ccc1N1CC(=O)Nc2cc3c(cc21)OCCO3 [FQI-37Q, 9-(4-(dimethylamino)-2-ethoxyphenyl)-2,3,8,9-tetrahydro-[1,4]dioxino[2,3-g]quinoxalin-7(6H)-one]	–	GI50 (read-out: GI50 (growth inhibition of Huh7 cells), Huh7 cells): 501 nM
CCOc1cc(N(C)C)ccc1N1CC(=O)Nc2cc3c(cc21)OCO3 [FQI-34Q, 8-(4-(dimethylamino)-2-ethoxyphenyl)-7,8-dihydro-[1,3]dioxolo[4,5-g]quinoxalin-6(5H)-one]	–	GI50 (Homo sapiens, Huh-7, read-out: GI50 (growth inhibition of Huh7 cells), Huh7 cells): ≤ 500 nM
CCOc1ccccc1N1CC(=O)Nc2cc3c(cc21)OCO3 [FQI-1Q, 8-(2-ethoxyphenyl)-7,8-dihydro-[1,3]dioxolo[4,5-g]quinoxalin-6(5H)-one]	3600	–
